Test results published in patent publication US20260151538A1, “DIFFERENTIATION AND REPROGRAMMING OF CHONDROCYTE” (ADA Forsyth Institute, Inc., priority 2022, published 2026).

Tests used:
[1] = system: GATA3; conditions: literature reports (Attakpa 2009; Gocke 2009; Ahmad 2017); cited from earlier work
[2] = system: ATDC5 cells; assay: ATDC5 micro-mass culture chondrogenesis, alcian blue staining; type: cell-based, mouse; conditions: ATDC5 cells in micro-mass culture; DHA at 0, 1, 5, 25 and 125 μM; quantified with ImageJ
Description: To further investigate the beneficial effects of GATA3 stimulation on cartilage regeneration, the inventors examined GATA3 activators in chondrogenesis. Using the ATDC5 cell line derived from mouse teratocarcinoma (undifferentiated embryonal carcinoma that can give rise to all three germ layers), the inventors first cultured the cells in micro-mass followed by differentiation into chondrocytes. Next, the inventors testes if the addition of GATA3 activators to the micro-mass culture could promote chondrogenesis. Staining was then performed to detect chondrogenic cells, which were positive for alcian blue. Imaging and quantitative analysis was then carried out to determine the percentage of the positively stained area using ImageJ.

Structure (SMILES) | GATA3 expression (transcripts and proteins) [1] | chondrocyte differentiation / chondrogenesis (percentage of alcian blue positively stained area) [2]
Cc1ccc(C)c(OCCCC(C)(C)C(=O)O)c1 [Gemfibrozil] | enhance GATA3 expression | substantial stimulated effects on chondrogenesis
Cc1cccc(Nc2cc(Cl)nc(SCC(=O)O)n2)c1C [Pirinixic acid] | enhance GATA3 expression | substantial stimulated effects on chondrogenesis
Oc1ccc(-c2nc(-c3ccncc3)c(-c3ccc(F)cc3)[nH]2)cc1 [SB202190] | enhance GATA3 expression | substantial stimulated effects on chondrogenesis
Nc1nc2c(cnn2CCc2ccccc2)c2nc(-c3ccco3)nn12 [SCH 58261] | enhance GATA3 expression | 
N#CC(=C(/N)Sc1ccccc1N)/C(C#N)=C(\N)Sc1ccccc1N [U0126] | enhance GATA3 expression | 
